US12269808B2, “Amino dithioperacid thioester compound, preparation method therefor, and use thereof” (FUDAN UNIVERSITY, priority 2019, dated 2025)

What was measured:
[1] = tested on: mouse myoblasts (C2C12) myotubes; test: C2C12 myotube atrophy induced by C26 cell culture medium (HE staining, myotube diameter); type: cell-based; conditions: for Myotube atrophy reversal rate (%): 48 h
Description: Carbamo(dithioperoxo)thioate analogs alleviate mouse myoblasts (C2C12) atrophy induced by mouse colon cancer cell (C26).
The diameter measurement method was used to evaluate the diameter of myotubes differentiated from mouse myoblasts (C2C12). The staining method used in the experiment was hematoxylin-eosin staining, referred to as HE staining. The hematoxylin stain is alkaline, positively charged, and easily binds to negatively charged and acidic deoxyribonucleic acid (DNA) in the nucleus with ionic bonding to show blue; while eosin is an acidic dye that dissociates into negatively charged anions in water and easily binds to the positively charged amino groups of proteins in the cytoplasm to show red. The stained cells were placed under a high-magnification microscope to take photos (magnification power: 400), and the diameter of myotubes could be counted using image J software.
The above method allows to evaluate the effect of the drug on the muscle atrophy cell model. The specific method is as follows.
C2C12 cells were seeded in 24-well plates in a culture medium of high-glucose DMEM medium containing 10% FBS and 1% P/S, and placed in a 5% CO2, 37° C. environment. When the cell density reaches 50%˜60%, the culture medium was changed into 2% HS differentiation medium (high-glucose DMEM medium containing 2% HS and 1% P/S); the differentiation medium was changed every 48 h until mature on day 5 or day 6. In addition, C26 cells were inoculated in T75 flasks, and the culture medium was changed into high-glucose DMEM medium containing 10% FBS and 1% P/S, and placed in a 5% CO2, 37° C. environment. While C26 cells (6×10^6 cells/flasks) were passaged, add 20 mL of culture medium to sequentially subculture for 48 h. To obtain the C26 supernatant, centrifuge C26 culture medium at 1000 rpm for 3 min and then at 4000 rpm for 10 min successively. The C26 supermatant and 2% HS differentiation medium were mixed 1:1 (volume ratio) as a muscle atrophy inducing medium. Except for the control group with 2% HS differentiation medium, other each group was added with the equal amounts of muscle atrophy-inducing medium and one group was used as the model group, and the rest groups were used as the experimental groups for drug administration. At the same time, carbamo(dithioperoxo)thioate compounds were added into the cells at the following gradient concentrations.
Wherein, the serial numbers correspond to the numbers of the accompanying figures, that is, FIG. 1-46 correspond to the samples of serial numbers 1-46 in Table 1. μM refers to μmol/L.
Myotube diameter was measured as follows.
After 48 h of action, the myotubes were fixed with fixative solution (anhydrous ethanol:formaldehyde:glacial acetic acid volume ratio=20:2:1) for more than 1 h, stained using hematoxylin-eosin staining method, and placed under a high-magnification microscope to acquire images and counted the diameter of myotubes using image J. The muscle atrophy reversal rate was calculated according to the following equation. Muscle atrophy reversal rate=(Average value of myotubes in drug administration group−Average value of myotubes in model group)/(Average value of myotubes in control group−Average value of myotubes in model group)×100%

3T3-L1 adipocytes = test: 3T3-L1 adipocyte lipolysis induced by C26 medium (glycerol assay); type: cell-based, mouse; conditions: for glycerol content: 48 h, control 287.44 μM, model 441.95 μM
Description: Experimental results of compound 4 alleviating 3T3-L1 adipocytes lipolysis.
Glycerol assay was used to evaluate intracellular lipid content. Glycerol kinase phosphorylates glycerol to glycerol 3-phosphate; glycerol 3-phosphate is oxidized by glycerophosphate oxidase to produce hydrogen peroxide; the chromogenic substrate is converted to benzoquinone imine in the presence of peroxidase, and its optical density value is proportional to the glycerol concentration.
The above methods allow to evaluate the effect of drugs on the fat lipolysis cell model. The methods are as follows:
3T3-L1 cells were seeded in 6-well plates in a culture medium (high-glucose DMEM medium containing 10% FBS and 1% P/S) and placed in a 5% CO2, 37° C. environment. The cells were allowed to grow to 100% confluence and continued to fuse for 3 days to start the differentiation operation. The culture medium for the first differentiation was high-glucose DMEM medium containing 0.5 mM IBMX, […], 1 μM dexamethasone and 10% FBS and 1% P/S, and then differentiated 3T3-L1 adipocytes for 72 h; The culture medium for the second differentiation was high-glucose DMEM medium containing […] and 10% FBS, and 1% P/S, and then differentiated 3T3-L1 adipocytes for 72 h; the culture medium for the third differentiation was high-glucose DMEM medium containing 10% FBS, and 1% P/S, and then differentiated 3T3-L1 for 72 h; After successful differentiation, it was obvious that there were a large number of oil droplets in the cells. In addition, C26 cells were inoculated in T75 flasks in the culture medium (high-glucose DMEM medium containing 10% FBS, and 1% P/S) and placed in a 5% CO2, 37° C. environment. While C26 cells (6×10^6 cells/flask) were passaged, add 15 mL of phenol red-free high-glucose DMEM culture medium to the T75 flask with 100% confluent C26 cells and sequentially subculture for 48 h. To obtain the supernatant, centrifuge C26 culture medium at 1000 rpm for 3 min and at 4000 rpm for 10 min successively, and take the supernatant to obtain the C26 supernatant successively. The C26 supernatant was mixed with phenol red-free high-glucose DMEM medium at 1:1 ratio as a fat lipolysis-inducing medium. Except for the control group with phenol red-free high-glucose DMEM medium, the other each group was added with the same amount of fat lipolysis-inducing liquid; one group was used as the model group, and the rest groups were used as the experimental groups for drug administration. At the same time, compound 4 stock solution was also added into the cells at the following concentrations of 12.5 μM, 25 μM, 50 μM, 100 μM.
The glycerol detection method was performed as follows: after 48 h of action, the glycerol content in the supernatant was detected using the glycerol detection kit from Beijing Applygen Gene Technology Co., Ltd.

[2] = tested on: BALB/c mice bearing C26 tumors; test: C26 tumor cancer cachexia animal model; type: in vivo, mouse; conditions: 5 mg/kg oral gavage (i.g)
Procedure: The experimental results of cancer cachexia animal models treated with compound 4, by the following methods.
C26 cells were cultured in T75 culture flasks in the culture medium (RPMI-1640 medium containing 10% FBS, and P/S) and placed in a 5% CO2, 37° C. environment. The cells were harvested by centrifugation at 1000 rpm for 3 min, and washed with ice-cold PBS buffer to remove the remaining culture medium and prepared into a cell suspension of 1×10^7 cells/mL. The cell suspension was inoculated into the left and right armpits of BALB/c mice with 1×10^6 cells/mouse for subsequent inoculation. When the tumor volume increased to about […], the tumor was removed and homogenized at 3.5 mL of ice-old saline/g to obtain tumor tissue suspension. The mice to be inoculated were grouped according to their body weight, and the cell suspension was inoculated into the left armpit of BALB/c mice at the amount of 100 μL/mouse. The administration of the drug was started the day after inoculation. Compound 4 was first dissolved in DMSO and then mixed with pre-warmed PBS solution (37° C.) to form a homogeneous and stable solution at a final concentration of 1 mg/mL (3% DMSO+2% anhydrous ethanol+1% polyoxyethylene castor oil). The dose was 5 mg/kg and the route of administration was oral gavage (i.g). The body weight, body temperature, tumor size and food intake of the mice were monitored daily. The mice in the model group were considered to be in the advanced stage of cachexia when they were about 10% weight loss after 16 days. The muscle grip of mice's limbs was measured, and samples of gastrocnemius muscle, epididymal fat and tumor were obtained after the mice were executed by […] and the tissue samples were weighed.
The measurement method of the muscle grasping force is as follows: The researcher holds the mouse steadily with his right hand, puts the mouse on the “YLS-13A rat and mouse grasping force measuring instrument” to let the forelimbs of mouse firmly grasp the grasping plate and uses his left hand to stabilize the grasping plate. To measure the muscle grasping force of the mouse, the researcher slowly releases his left hand from the grasping plate and immediately uses his right hand to pull the mouse's tail backward slowly until the forelimbs are free from the grasping plate. Each mouse is repeated 8 times, and the average value of the 8 times is used as the skeletal muscle strength index of each mouse.
Results and Conclusions: Referring to FIGS. 48 to 58, the three curves in the figures represent the healthy group, the C26 tumor model group and the dosing group (compound 4 group, where compound 4 was administrated at a dose of 5 mg/kg), respectively.

[3] = 12.5 μM, C26 medium-induced C2C12 myotubes
[4] = 25 μM, C26 medium-induced C2C12 myotubes
[5] = 50 μM, C26 medium-induced C2C12 myotubes
[6] = l00 μM, C26 medium-induced C2C12 myotubes
[7] = vs C26 tumor model group, p<0.05

SMILES	Myotube atrophy reversal rate (%) [1, 4]	Myotube atrophy reversal rate (%) [1, 5]	Myotube atrophy reversal rate (%) [1, 6]	other results
CCCCCCCCCCSSC(=S)N1CCCC1 [Compound 2]	43.90% (25 μM)	61.05% (50 μM)		Myotube atrophy reversal rate (%) [1, 3]: 16.94%
CCCCCCCCCCCCCCSSC(=S)N1CCCC1 [Compound 6]	20.41%	35.98%	33.80%	
CCCCCCCCCCCCSSC(=S)N1CCCCC1 [Compound 14]	17.02%	43.19%		
CCCCCCCCCCCCSSC(=S)N1CCC2(COC2)C1 [Compound 11]	42.30%	64.65%		
CCCCCCCCCCCCSSC(=S)N1CCCC1 [Compound 4]				Myotube atrophy reversal rate (%) ([1]; 3.125 μM, C26 medium-induced C2C12 myotubes): 37.78%; Myotube atrophy reversal rate (%) ([1]; 6.25 μM, C26 medium-induced C2C12 myotubes): 54.53%; cytotoxicity (in words) ([1]; 12.5 μM): non-cytotoxic; Myotube atrophy reversal rate (%) [1, 3]: 92.83%; Myotube atrophy reversal rate (%) ([1]; 12.5 μM, C26 medium-induced C2C12 myotubes, listed as compound 4): 92.83%; glycerol content (3T3-L1 adipocytes; 12.5 μM compound): 379.44 µM; glycerol content (3T3-L1 adipocytes; 25 μM compound): 347.14 µM; glycerol content (3T3-L1 adipocytes; 50 μM compound): 313.67 µM; glycerol content (3T3-L1 adipocytes; 100 μM compound): 310.95 µM; glycerol released from 3T3-L1 mature adipocytes (in words) (3T3-L1 adipocytes; 12.5-100 μM, C26 cell culture medium induced): concentration-dependent reduction; cancer cachexia symptoms (weight loss, muscle atrophy, fat loss, body temperature decrease) [2]: alleviate the weight loss, muscle atrophy, fat degradation and body temperature decrease; body weight with tumor vs C26 tumor model group ([2]; end of experiment, p<0.01): higher than those in the C26 tumor model group; body weight without tumor vs C26 tumor model group ([2]; end of experiment, p<0.01): higher than those in the C26 tumor model group; food intake ([2]; vs C26 tumor model group): higher food intake than the C26 tumor model group; tumor volume / growth of C26 tumors ([2]; vs C26 tumor model group): no significant inhibitory effect; epididymal fat mass [2, 7]: significantly increase the epididymal fat mass; gastrocnemius muscle mass [2, 7]: significantly alleviate gastrocnemius muscle atrophy; muscle grasping force [2, 7]: significantly enhance the muscle grasping force
CCCCCCCCCCCCSSC(=S)N1Cc2ccccc2C1 [Compound 9]	12.22%	29.24%	60.06%	
CCCCCCCCSSC(=S)N1CCCC1 [Compound 1]	18.39%	2.51%	36.26%	
CCCCCCCCCCCCCCCCSSC(=S)N1CCCC1 [Compound 7]	41.05%	28.79%	43.99%	
CCCCCCCCCCCCSSC(=S)N1CCC1 [Compound 17]	26.34%	53.97%		
CCCCCCCCCCCSSC(=S)N1CCCC1 [Compound 3]	35.76%	33.40%	46.11%	
CCCCCCCCCCCCSSC(=S)N1CCN(C)CC1 [Compound 16]	31.39%	46.75%		
CCCCCCCCCCCCCCCCCCSSC(=S)N1CCCC1 [Compound 8]	−1.83%	17.41%	6.10%	reversal of myotube atrophy (activity in words) ([1]; C26 medium-induced C2C12 myotubes): lower
CCCCCCCCCCCCSSC(=S)N1CCc2ccccc21 [Compound 10]	10.82%	25.32%	45.93%	
CCCCCCCCCCCCSSC(=S)N1CCC(O)C1 (stereo not drawn) [Compound 13]	18.05%	42.38%		
CCCCCCCCCCCCSSC(=S)N1CCOCC1 [Compound 15]	26.47%	48.24%		
CCCCCCCCCCCCCSSC(=S)N1CCCC1 [Compound 5]	23.27%	40.28%		
CCCCCCCCCCCCSSC(=S)N1CC2CCCCC2C1 (stereo not drawn) [Compound 12]	20.85%	49.43%	66.73%	
